According to patent US9302999B2, “Substituted triazoles as herbicides” (E. I. DU PONT DE NEMOURS AND COMPANY, priority 2012, dated 2016):

Assays:
Type in all cases: in vivo
[1] = tested on: panicum, fall (fall panicum Panicum dichotomiflorum); experiment: Test F pre-/postemergence: panicum, fall
From the text: (§1) Seeds of plant species selected from corn (Zea mays), soybean (Glycine max), velvetleaf (Abutilon theophrasti), lambsquarters (Chenopodium album), poinsettia, wild (wild poinsettia, Euphorbia heterophylla), pigweed, palmer (palmer pigweed, Amaranthus palmeri), waterhemp (common waterhemp, Amaranthus rudis), surinam grass (Brachiaria decumbens), crabgrass, Brazil (Brazilian crabgrass, Digitaria horizontalis), panicum, fall (fall panicum Panicum dichotomiflorum), crabgrass, large (large crabgrass, Digitaria sanguinalis), foxtail, giant (giant foxtail, Setaria faberii), foxtail, green (green foxtail Setaria viridis), goosegrass (Eleusine indica), ragweed (common ragweed, Ambrosia elatior), barnyardgrass (Echinochloa crus-galli), sandbur (southern sandbur, Cenchrus echinatus), arrowleaf sida (Sida rhombifolia), ryegrass, Italian (Italian ryegrass, Lolium multiflorum), dayflower, VA (Virginia (VA) dayflower, Commelina virginica), field bindweed (Convolvulus arvensis), cocklebur (common cocklebur, Xanthium strumarium), morningglory (Ipomoea coccinea), nightshade (eastern black nightshade, Solanum ptycanthum), kochia (Kochia scoparia), nutsedge, yellow (yellow nutsedge, Cyperus esculentus), johnsongrass (Sorghum halepense), smartweed (ladysthumb smartweed, Polygonum persicaria), and beggarticks (hairy beggarticks, Bidens pilosa), were planted into a silt loam soil and treated preemergence with test chemicals formulated in a non-phytotoxic solvent mixture which included a surfactant. At the same time, plants selected from these crop and weed species and also pigweed (Amaranthus retroflexus), waterhemp_RES1 (ALS/Triazine resistant common waterhemp, Amaranthus rudis) and waterhemp_RES2 (ALS/HPPD resistant common waterhemp, Amaranthus rudis) were planted in pots containing a planting medium comprising spaghnum peat moss, vermiculite, wetting agent and starter nutrients treated with postemergence applications of some of the test chemicals formulated in the same manner. Plants ranged in height from 2 to 18 cm for postemergence treatments (1- to 4-leaf stage).
(§2) Treated plants and controls were maintained in a greenhouse for 14 to 21 days, after which time all species were compared to controls and visually evaluated. Plant response ratings, summarized in Table E, are based on a scale of 0 to 100 where 0 is no effect and 100 is complete control. A dash (-) response means no test result.

[2] = tested on: cocklebur (common cocklebur, Xanthium strumarium); experiment: Test F pre-/postemergence: cocklebur; conditions: Preemergence
From the text: as §1, §2

[3] = tested on: goosegrass (Eleusine indica); experiment: Test F pre-/postemergence: goosegrass; conditions: Preemergence
From the text: as §1, §2

[4] = tested on: morningglory (Ipomoea coccinea); experiment: Test F pre-/postemergence: morningglory; conditions: Preemergence
From the text: as §1, §2

[5] = tested on: waterhemp (common waterhemp, Amaranthus rudis); experiment: Test F pre-/postemergence: waterhemp
From the text: as §1, §2

[6] = Preemergence, 16 g ai/ha, scale 0 to 100, 0 no effect, 100 complete control
[7] = Preemergence, 31 g ai/ha, scale 0 to 100, 0 no effect, 100 complete control
[8] = Preemergence, 125 g ai/ha, scale 0 to 100
[9] = Preemergence, 250 g ai/ha, scale 0 to 100
[10] = 16 g ai/ha, scale 0 to 100, 0 no effect, 100 complete control
[11] = 31 g ai/ha, scale 0 to 100, 0 no effect, 100 complete control
[12] = Postemergence, 250 g ai/ha, scale 0 to 100
[13] = Postemergence, 16 g ai/ha, scale 0 to 100
[14] = Postemergence, 31 g ai/ha, scale 0 to 100
[15] = Postemergence, 62 g ai/ha, scale 0 to 100
[16] = Postemergence, 125 g ai/ha, scale 0 to 100

Structure (SMILES)	Plant response rating, Panicum, Fall [1, 6]	Plant response rating, Panicum, Fall [1, 7]	Plant response rating, Panicum, Fall [1, 8]	Plant response rating, Panicum, Fall [1, 9]	Plant response rating, Cocklebur ([2]; 62 g ai/ha, scale 0 to 100)	Plant response rating, Goosegrass [3, 10]	Plant response rating, Goosegrass [3, 11]	Plant response rating, Goosegrass ([3]; 62 g ai/ha, scale 0 to 100)	Plant response rating, Goosegrass ([3]; 125 g ai/ha, scale 0 to 100)	Plant response rating, Goosegrass ([3]; 250 g ai/ha, scale 0 to 100)	Plant response rating, Morningglory [4, 10]	Plant response rating, Morningglory [4, 11]	Plant response rating, Morningglory ([4]; 125 g ai/ha, scale 0 to 100)	Plant response rating, Morningglory ([4]; 250 g ai/ha, scale 0 to 100)	Plant response rating, Waterhemp [5, 6]	Plant response rating, Waterhemp [5, 7]	Plant response rating, Waterhemp [5, 8]	Plant response rating, Waterhemp [5, 9]	Plant response rating, Cocklebur [2, 10]	Plant response rating, Cocklebur [2, 11]	other results
COc1nn(-c2cccc(F)c2)nc1Cc1ccnc(C(F)(F)F)c1 [Compound 139]	0	25	100	100	0	5	70	80	98	100	0	0	5	20	70	100	100	100			Plant response rating, Cocklebur ([2]; 125 g ai/ha, scale 0 to 100): 0
Cc1nn(-c2ccc(F)cc2F)nc1Oc1ccnc(C(F)(F)F)c1 [Compound 146]	0	5	100	100		0	40	70	75	98	0	0	0	25	25	75	100	100			
CCc1nn(-c2ccc(F)c(F)c2)nc1Oc1ccnc(C(F)(F)F)c1 [Compound 171]	0	65	100	100	0	70	80	100	100	100	0	0	35	65	0	95	100	100	0	0	
CCc1nn(-c2ccc(C(F)(F)F)cc2)nc1Oc1ccnc(C(F)(F)F)c1 [Compound 169]	65	100	100	100	0	50	95	100	100	100	0	0	40	40	60	80	100	100	0	0	Plant response rating, Panicum, Fall [1, 12]: 30; Plant response rating, Panicum, Fall [1, 13]: 10; Plant response rating, Panicum, Fall [1, 14]: 15; Plant response rating, Panicum, Fall [1, 15]: 20; Plant response rating, Panicum, Fall [1, 16]: 25; Plant response rating, Waterhemp [5, 12]: 100; Plant response rating, Waterhemp [5, 13]: 75; Plant response rating, Waterhemp [5, 14]: 90; Plant response rating, Waterhemp [5, 15]: 90; Plant response rating, Waterhemp [5, 16]: 100
